Source: patent US20170044121A1, “TETRA-O-SUBSTITUTED BUTANE-BRIDGE MODIFIED NDGA DERIVATIVES, THEIR SYNTHESIS AND PHARMAECUTICAL USE” (Erimos Pharmaceuticals LLC, priority 2006, published 2017)
Structures can show the parent of a compound that is named as a salt. Where two headings read alike, the source gives them in different places. Each block holds one compound with its values, some of them ahead of it.

Experiments:
Caco-2 cell monolayers [1] = conditions: Caco-2 test system, historical values; cited from earlier work
in vitro [2] = conditions: human; for Papp A→B at 90 min, 50 μM: Caco-2, pH 7.4, Papp mean A to B
Caco-2 cell monolayers [3] = conditions: for Mass balance mean A to B: 50 μM
[4] = system: HeLa (cervical adenocarcinoma); assay: MTS cell viability assay, HeLa; assay type: cell-based; conditions: read-out: HeLa IC50
A549 (lung carcinoma) = assay: MTS cell viability assay, A549; assay type: cell-based
in vitro [5] = assay: in vitro
survivin = assay: ELISA survivin assay (cell lysates); assay type: cell-based; conditions: Homo sapiens, survivin protein in cell lysates
MCP-1 = MCP-1 protein production in TNF-α-treated primary human keratinocytes; assay type: cell-based; conditions: Keratinocyte, read-out: MCP-1 IC50
Caco-2 cell monolayers [6] = assay: Caco-2 monolayer permeability study
[7] = Caco-2 monolayer permeability study; conditions: human
COS-7 cells = assay: MTT cytotoxicity in COS-7 cells (run with SEAP); assay type: cell-based, green monkey; conditions: Chlorocebus sabaeus
[8] = system: apoptosis in cultured cells (DNA fragmentation); assay: TiterTACS DNA fragmentation apoptosis assay; assay type: cell-based; conditions: TiterTACS apoptosis detection
VEGF = assay: ELISA VEGF assay (DFO-induced hypoxia); assay type: cell-based; conditions: Homo sapiens, read-out: VEGF IC50
[9] = system: TAT transactivation of the HIV-1 LTR promoter (TAT-TRS); assay: cells; assay type: cell-based; conditions: Human immunodeficiency virus 1, COS-7, 48 h, read-out: SEAP EC50
[10] = system: Breast Cancer cell line panel (8 cell lines); assay: cells; conditions: Homo sapiens, 48 h, read-out: LC50
[11] = system: Melanoma cell line panel (8 cell lines); conditions: Melanoma (8 cell lines), 48 hours, SRB
[12] = system: Colon Cancer cell line panel (6 cell lines); conditions: Colon Cancer (6 cell lines), 48 hours, SRB
[13] = system: Renal Cancer cell line panel (8 cell lines); conditions: Renal Cancer (8 cell lines), 48 hours, SRB
[14] = Non-specific binding to 24-well assay plate without cells; conditions: single well of a 24-well assay plate without cells
[15] = system: Renal Cancer cell line panel (8 cell lines); assay: cells; conditions: Homo sapiens, 48 h, read-out: LC50
[16] = system: Colon Cancer cell line panel (6 cell lines); assay: cells; conditions: Homo sapiens, 48 h, read-out: LC50
[17] = system: CNS cell line panel (5 cell lines); assay: cells; conditions: Homo sapiens, 48 h, read-out: LC50
[18] = system: Leukemia cell line panel (6 cell lines); assay: cells; conditions: Homo sapiens, 48 h, read-out: LC50
[19] = system: Leukemia cell line panel (6 cell lines); conditions: Leukemia (6 cell lines), 48 hours, SRB
[20] = system: Breast Cancer cell line panel (8 cell lines); conditions: Breast Cancer (8 cell lines), 48 hours, SRB
[21] = system: NSCLC cell line panel (9 cell lines); assay: cells; conditions: Homo sapiens, 48 h, read-out: LC50
[22] = system: Ovarian Cancer cell line panel (6 cell lines); assay: cells; conditions: Homo sapiens, 48 h, read-out: LC50
[23] = system: Prostate cell line panel (1 cell line); conditions: Prostate (1 cell line), 48 hours, SRB
[24] = system: CNS cell line panel (5 cell lines); conditions: CNS (5 cell lines), 48 hours, SRB
[25] = system: Ovarian Cancer cell line panel (6 cell lines); conditions: Ovarian Cancer (6 cell lines), 48 hours, SRB
[26] = system: Prostate cell line panel (1 cell line); assay: cells; conditions: Homo sapiens, 48 h, read-out: LC50
[27] = system: NSCLC cell line panel (9 cell lines); conditions: NSCLC (9 cell lines), 48 hours, SRB
[28] = system: Melanoma cell line panel (8 cell lines); assay: cells; conditions: Homo sapiens, 48 h, read-out: LC50
[29] = cited from earlier work
[30] = system: H-69 small cell lung cancer cells; conditions: cited from earlier work
[31] = Homo sapiens, A549, read-out: A549 IC50
[32] = Caco-2, nominal conc. 20 μM, 90 minutes, duplicate monolayers
[33] = TNF-α-treated PHK, MCP-1 protein production, ELISA
[34] = MTT assay, COS-7 test cells of the SEAP assay, read-out: COS-7 IC50
[35] = human, Caco-2, 90 min, 1 μM, pH 7.4

Papp A→B at 90 min, 50 μM (in vitro [2]): 14.2 ×10⁻⁶ cm/s | Mass balance mean A to B (Caco-2 cell monolayers [3]; human, Caco-2, 90 min, pH 7.4): 71%
SMILES: CC(C)NCC(O)COc1cccc2ccccc12 (stereo not shown) [propranolol, reference compound]
Papp historical range at the testing facility (mean ± SD) (Caco-2 cell monolayers [1]): 1.5×10^−5±4.2×10^−5

SMILES: CN1CCN(CCOc2ccc(CCCCc3ccc(OCCN4CCN(C)CC4)c(OCCN4CCN(C)CC4)c3)cc2OCCN2CCN(C)CC2)CC1 [Compound F, 1,4-bis{3,4-bis[2-(1-methyl-piperazin-4-yl)-ethoxy]phenyl}-butane]
IC50 ([4]; Homo sapiens, HeLa): > 100 µM | IC50 (A549 (lung carcinoma); [31]): > 100 µM

SMILES: Cc1nc(COc2ccc(CCCCc3ccc(OCc4csc(C)n4)c(OCc4csc(C)n4)c3)cc2OCc2csc(C)n2)cs1 (as salt: hydrochloride) [Compound G, 1,4-bis{3,4-bis(2-methyl-thiazol-4-yl-methoxy)phenyl}-butane tetrakis-hydrochloride salt]
melting point: 96 to 98 °C

SMILES: CN(C)CCOc1ccc(CCCCc2ccc(OCCN(C)C)c(OCCN(C)C)c2)cc1OCCN(C)C [Compound H, 1,4-bis{3,4-bis(2-(N,N′-dimethylamino)-ethoxy)phenyl}-butane]
recovery at 90 min, 20 μM (in vitro [5]): 96% | IC50 (survivin): ~25 µM | IC50 ([4]; Homo sapiens, HeLa): 20 to 30 µM | IC50 (MCP-1): 75 µM | melting point: 65 to 67 °C | Polarization Ratio [B-A/A-B] (Caco-2 cell monolayers [6]; Caco-2, nominal conc. 20 μM): 0.15 | Papp A to B (Caco-2 cell monolayers [6]; [32]): 64.4 ×10⁻⁶ cm/s | Papp B to A (Caco-2 cell monolayers [6]; [32]): 10.1 ×10⁻⁶ cm/s | Mass Balance A to B (Caco-2 cell monolayers [6]; Caco-2, nominal conc. 20 μM, recovery from apical and basolateral chambers, duplicates): ≧100% | Papp B→A at 90 min, 20 μM ([7]; Caco-2, pH 7.4): 10.1 ×10⁻⁶ cm/s | Papp A→B at 90 min ([7]; Caco-2, pH 7.4, BCS permeability class, from A-B Papp in Caco-2 versus mannitol and propranolol): > 14.2 ×10⁻⁶ cm/s | Papp A→B at 90 min, 20 μM ([7]; Caco-2, pH 7.4, Papp A to B, Caco-2, nominal conc. 20 μM, 90 minutes, duplicate monolayers): 66.7 ×10⁻⁶ cm/s | efflux ratio at 90 min, 20 μM ([7]; Caco-2, pH 7.4, Polarization Ratio [B-A/A-B], Caco-2, nominal conc. 20 μM): 0.1 to 0.2 | IC50 (COS-7 cells; COS-7, read-out: COS-7 IC50): 20 to 30 µM | IC50 (A549 (lung carcinoma); [31]): 20 to 40 µM | DNA fragmentation [8]: Positive | IC50 (VEGF): > 60 µM | EC50 [9]: 30 to 40 µM

SMILES: c1cc(OCCCN2CCCCC2)c(OCCCN2CCCCC2)cc1CCCCc1ccc(OCCCN2CCCCC2)c(OCCCN2CCCCC2)c1 [Compound D, 1,4-bis{3,4-bis[3-(piperidin-1-yl)propoxy]phenyl}-butane]
IC50 ([4]; Homo sapiens, HeLa, MTS assay): 5 to 6 µM | IC50 (MCP-1; [33]): 3 µM | CC50 [10]: 30.8 µM | Mean Growth Percent at 10 μM ([11]; 10 μM): 16.46% | TGI [11]: 7.74E−6 | Mean Growth Percent at 10 μM ([12]; 10 μM): 40.49% | TGI [12]: 6.45E−6 | Mean Growth Percent at 10 μM ([13]; 10 μM): 82.54% | TGI [13]: 1.70E−5 | recovery at 90 min, 1 μM [14]: 35% | CC50 [15]: 37 µM | CC50 [16]: 22.8 µM | CC50 [17]: 11 µM | CC50 [18]: 13.4 µM | Mean Growth Percent at 10 μM ([19]; 10 μM): 12.31% | TGI [19]: 4.28E−6 | Mean Growth Percent at 10 μM ([20]; 10 μM): 59.72% | TGI [20]: 2.11E−5 | Papp A→B at 90 min, 1 μM (in vitro [2]; Caco-2, pH 7.4, Papp A to B): 13.8 ×10⁻⁶ cm/s | Papp B→A at 90 min, 1 μM (in vitro [2]; Caco-2, pH 7.4, Papp B to A): 2.35 ×10⁻⁶ cm/s | efflux ratio at 90 min, 1 μM (in vitro [2]; Caco-2, pH 7.4, Polarization Ratio [B-A/A-B]): 0.1 to 0.2 | IC50 (COS-7 cells; [34]): 0.8 to 0.9 µM | CC50 [21]: 28.4 µM | CC50 [22]: 35.3 µM | IC50 (A549 (lung carcinoma); MTS assay, read-out: A549 IC50): 1 to 2 µM | Mean Growth Percent at 10 μM ([23]; 10 μM): 2.84% | TGI [23]: 2.76E−5 | DNA fragmentation [8]: Positive | Mean Growth Percent at 10 μM ([24]; 10 μM): 78.88% | TGI [24]: 4.13E−6 | Mean Growth Percent at 10 μM ([25]; 10 μM): 66.18% | TGI [25]: 1.46E−5 | IC50 (VEGF; VEGF released into media, ELISA): ~4 µM | BCS permeability class (Caco-2 cell monolayers [3]; Caco-2): moderate-to-high | Papp A to B (Caco-2 cell monolayers [3]; [35]): 14 ×10⁻⁶ cm/s | Papp B to A (Caco-2 cell monolayers [3]; [35]): 2.51 ×10⁻⁶ cm/s | Polarization Ratio [B-A/A-B] (Caco-2 cell monolayers [3]; [35]): 0.18 | CC50 [26]: 53.9 µM | EC50 [9]: 0.7 to 0.8 µM | Mean Growth Percent at 10 μM ([27]; 10 μM): 62.77% | TGI [27]: 7.31E−6 | CC50 [28]: 15.9 µM

SMILES: COc1ccc(CCCCc2ccc(OC)c(OC)c2)cc1OC [Compound A, 1,4-bis-(3,4-methoxyphenyl) butane]
IC50 ([4]; Homo sapiens, HeLa): > 100 µM | IC50 (MCP-1): > 100 µM | IC50 (COS-7 cells; COS-7, read-out: COS-7 IC50): > 100 µM | IC50 (A549 (lung carcinoma); [31]): > 100 µM | EC50 [9]: > 100 µM

SMILES: Cc1nc(COc2ccc(CCCCc3ccc(OCc4csc(C)n4)c(OCc4csc(C)n4)c3)cc2OCc2csc(C)n2)cs1 [Compound G, 1,4-bis{3,4-bis(2-methyl-thiazol-4-yl-methoxy)phenyl}-butane tetrakis-hydrochloride salt]
IC50 ([4]; Homo sapiens, HeLa): > 100 µM | IC50 (A549 (lung carcinoma); [31]): > 100 µM

SMILES: c1cc(OCCCN2CCCCC2)c(OCCCN2CCCCC2)cc1CCCCc1ccc(OCCCN2CCCCC2)c(OCCCN2CCCCC2)c1 [Compound E, 1,4-bis{3,4-bis[3-(piperidin-1-yl)propoxy]phenyl}-butane tetrakis-hydrochloride salt]
IC50 ([4]; MTS assay): 5 to 10 µM | IC50 (A549 (lung carcinoma); MTS assay, read-out: A549 IC50): 9 µM

SMILES: COc1ccc(C[C@@H](C)[C@@H](C)Cc2ccc(OC)c(OC)c2)cc1OC [Compound M4N, (tetra-O-methyl)nordihydroguaiaretic acid]
water solubility [29]: poor

SMILES: CCOc1ccc(CCCCc2ccc(OCC)c(OCC)c2)cc1OCC [Compound C, 1,4-bis-(3,4-ethoxyphenyl) butane]
IC50 ([4]; Homo sapiens, HeLa, MTS assay): > 100 µM | IC50 (MCP-1; [33]): > 100 µM | melting point: 113 to 115 °C | IC50 (COS-7 cells; [34]): > 100 µM | IC50 (A549 (lung carcinoma); Homo sapiens, A549, MTS assay, read-out: A549 IC50): > 100 µM | EC50 [9]: > 100 µM

Papp A→B at 90 min, 50 μM (in vitro [2]): 0.514 ×10⁻⁶ cm/s | Mass balance mean A to B (Caco-2 cell monolayers [3]; human, Caco-2, 90 min, pH 7.4): 96%
SMILES: OC[C@@H](O)[C@@H](O)[C@H](O)[C@H](O)CO [mannitol, reference compound]

SMILES: C[C@H]1O[C@@H](O[C@H]2[C@@H](O)C[C@H](O[C@H]3[C@@H](O)C[C@H](O[C@H]4CC[C@@]5(C)[C@H](CC[C@@H]6[C@@H]5C[C@@H](O)[C@]5(C)[C@@H](C7=CC(=O)OC7)CC[C@]65O)C4)O[C@@H]3C)O[C@@H]2C)C[C@H](O)[C@@H]1O [digoxin, reference compound]
Mass balance mean A to B (Caco-2 cell monolayers [6]; Caco-2, 5 μM, 90 minutes): 73% | Mass balance mean B to A (Caco-2 cell monolayers [6]; Caco-2, 5 μM, 90 minutes): 79% | Polarization Ratio mean (B-A/A-B) (Caco-2 cell monolayers [6]; Caco-2, 5 μM, 90 minutes): 5.4 | Papp mean B to A (Caco-2 cell monolayers [6]; Caco-2, 5 μM, 90 minutes, pH 7.4): 12.4 ×10⁻⁶ cm/s | Papp A→B at 90 min, 5 μM ([7]; Caco-2, pH 7.4, Papp mean A to B, Caco-2, 5 μM, 90 minutes, pH 7.4): 2.28 ×10⁻⁶ cm/s

melting point: 140 to 142 °C
SMILES: Oc1ccc(CCCCc2ccc(O)c(O)c2)cc1O [Compound B, 1,4-bis-(3,4-hydroxyphenyl) butane]
potency relative to NDGA as proliferative inhibitor [30]: 10 times
